Data from the supplement of paper PMC10307832.

Experiments:
Test in all cases: relative viability (nuclei count vs DMSO), 5 days (fraction); higher = more cells survive
[1] = system: ABC-1
In short: (§1)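 Each reported value is a median over duplicate plates. It expresses relative viability: treated-well nuclei count divided by vehicle-well nuclei count. Lung cancer cell lines in 1536-well plates were dosed by pin tool a day after seeding, alone with one drug or with a fixed anchor-drug dose plus five library-drug doses (not always all listed) in √10 steps, and nuclei were counted after 5 days.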

[2] = system: BEN
In short: as §1

[3] = system: EKVX
In short: as §1

[4] = system: EPLC-272H
In short: as §1

[5] = system: HCC-827
In short: as §1

[6] = system: HOP-62
In short: as §1

[7] = system: LU99A
In short: as §1

[8] = system: LXF-289
In short: as §1

[9] = system: NCI-H1563
In short: as §1

[10] = system: NCI-H1666
In short: as §1

[11] = system: NCI-H1975
In short: as §1

[12] = system: NCI-H2170
In short: as §1

[13] = system: NCI-H23
In short: as §1

[14] = system: NCI-H2405
In short: as §1

[15] = system: NCI-H3122
In short: as §1

[16] = system: NCI-H322M
In short: as §1

[17] = system: NCI-H358
In short: as §1

[18] = system: NCI-H520
In short: as §1

[19] = system: NCI-H727
In short: as §1

[20] = system: NCI-H838
In short: as §1

[21] = system: SK-MES-1
In short: as §1

[22] = system: UMC-11
In short: as §1

COCC1(CO)C(=O)C2CCN1CC2 (centres undefined) [PRIMA-1MET] + CS(=O)(=O)N1CCN(Cc2cc3nc(-c4cccc5[nH]ncc45)nc(N4CCOCC4)c3s2)CC1 [Pictilisib] (partner 1 µM)
relative viability ([1]; first compound 0.2 µM): 0.71
relative viability ([1]; first compound 0.6325 µM): 0.5
relative viability ([1]; first compound 2 µM): 0.558
relative viability ([1]; first compound 6.325 µM): 0.669
relative viability ([1]; first compound 20 µM): 0.55
relative viability ([2]; first compound 0.2 µM): 0.608
relative viability ([2]; first compound 0.6325 µM): 0.514
relative viability ([2]; first compound 6.325 µM): 0.521
relative viability ([2]; first compound 20 µM): 0.464
relative viability ([3]; first compound 0.2 µM): 0.475
relative viability ([3]; first compound 0.6325 µM): 0.458
relative viability ([3]; first compound 2 µM): 0.328
relative viability ([3]; first compound 6.325 µM): 0.489
relative viability ([3]; first compound 20 µM): 0.356
relative viability ([4]; first compound 0.2 µM): 0.295
relative viability ([4]; first compound 0.6325 µM): 0.251
relative viability ([4]; first compound 2 µM): 0.234
relative viability ([4]; first compound 6.325 µM): 0.305
relative viability ([4]; first compound 20 µM): 0.124
relative viability ([5]; first compound 0.2 µM): 1.33
relative viability ([5]; first compound 0.6325 µM): 0.907
relative viability ([5]; first compound 2 µM): 0.863
relative viability ([5]; first compound 6.325 µM): 1.08
relative viability ([5]; first compound 20 µM): 0.81
relative viability ([6]; first compound 0.2 µM): 0.442
relative viability ([6]; first compound 0.6325 µM): 0.465
relative viability ([6]; first compound 2 µM): 0.368
relative viability ([6]; first compound 6.325 µM): 0.734
relative viability ([6]; first compound 20 µM): 0.392
relative viability ([7]; first compound 0.2 µM): 0.414
relative viability ([7]; first compound 0.6325 µM): 0.323
relative viability ([7]; first compound 2 µM): 0.386
relative viability ([7]; first compound 6.325 µM): 0.308
relative viability ([7]; first compound 20 µM): 0.154
relative viability ([8]; first compound 0.2 µM): 0.691
relative viability ([8]; first compound 0.6325 µM): 0.743
relative viability ([8]; first compound 2 µM): 0.531
relative viability ([8]; first compound 6.325 µM): 0.717
relative viability ([8]; first compound 20 µM): 0.761
relative viability ([9]; first compound 0.2 µM): 0.645
relative viability ([9]; first compound 0.6325 µM): 0.696
relative viability ([9]; first compound 2 µM): 0.632
relative viability ([9]; first compound 6.325 µM): 0.629
relative viability ([9]; first compound 20 µM): 0.345
relative viability ([10]; first compound 0.2 µM): 0.494
relative viability ([10]; first compound 0.6325 µM): 0.335
relative viability ([10]; first compound 2 µM): 0.54
relative viability ([10]; first compound 6.325 µM): 0.415
relative viability ([10]; first compound 20 µM): 0.198
relative viability ([11]; first compound 0.2 µM): 0.294
relative viability ([11]; first compound 0.6325 µM): 0.291
relative viability ([11]; first compound 2 µM): 0.27
relative viability ([11]; first compound 6.325 µM): 0.311
relative viability ([11]; first compound 20 µM): 0.248
relative viability ([12]; first compound 0.2 µM): 0.312
relative viability ([12]; first compound 0.6325 µM): 0.276
relative viability ([12]; first compound 2 µM): 0.283
relative viability ([12]; first compound 6.325 µM): 0.336
relative viability ([12]; first compound 20 µM): 0.297
relative viability ([13]; first compound 0.2 µM): 0.361
relative viability ([13]; first compound 0.6325 µM): 0.403
relative viability ([13]; first compound 2 µM): 0.323
relative viability ([13]; first compound 6.325 µM): 0.334
relative viability ([13]; first compound 20 µM): 0.138
relative viability ([14]; first compound 0.2 µM): 0.278
relative viability ([14]; first compound 0.6325 µM): 0.497
relative viability ([14]; first compound 6.325 µM): 0.359
relative viability ([14]; first compound 20 µM): 0.0865
relative viability ([15]; first compound 0.2 µM): 0.288
relative viability ([15]; first compound 0.6325 µM): 0.647
relative viability ([15]; first compound 2 µM): 0.659
relative viability ([15]; first compound 6.325 µM): 0.429
relative viability ([15]; first compound 20 µM): 0.52
relative viability ([16]; first compound 0.2 µM): 0.543
relative viability ([16]; first compound 6.325 µM): 0.492
relative viability ([16]; first compound 20 µM): 0.451
relative viability ([17]; first compound 0.2 µM): 0.392
relative viability ([17]; first compound 0.6325 µM): 0.318
relative viability ([17]; first compound 6.325 µM): 0.319
relative viability ([17]; first compound 20 µM): 0.0332
relative viability ([18]; first compound 0.2 µM): 0.345
relative viability ([18]; first compound 0.6325 µM): 0.285
relative viability ([18]; first compound 6.325 µM): 0.368
relative viability ([18]; first compound 20 µM): 0.13
relative viability ([19]; first compound 0.2 µM): 0.258
relative viability ([19]; first compound 0.6325 µM): 0.341
relative viability ([19]; first compound 2 µM): 0.241
relative viability ([19]; first compound 6.325 µM): 0.178
relative viability ([19]; first compound 20 µM): 0.109
relative viability ([20]; first compound 0.2 µM): 0.46
relative viability ([20]; first compound 0.6325 µM): 0.448
relative viability ([20]; first compound 2 µM): 0.355
relative viability ([20]; first compound 6.325 µM): 0.589
relative viability ([20]; first compound 20 µM): 0.632
relative viability ([21]; first compound 0.2 µM): 0.449
relative viability ([21]; first compound 0.6325 µM): 0.384
relative viability ([21]; first compound 2 µM): 0.359
relative viability ([21]; first compound 6.325 µM): 0.381
relative viability ([21]; first compound 20 µM): 0.349
relative viability ([22]; first compound 0.2 µM): 0.945
relative viability ([22]; first compound 0.6325 µM): 0.759
relative viability ([22]; first compound 2 µM): 0.594
relative viability ([22]; first compound 6.325 µM): 0.825
relative viability ([22]; first compound 20 µM): 0.786
